Measured values reported in ChEMBL document CHEMBL3639292, “17-hydroxy-19-nor-21-carboxylic acid-steroid Œ=-lactone derivative, use thereof, and medicament containing the derivative” (2015).

Target: T1, Androgen receptor (Homo sapiens, UniProt P10275)
T1 sequence (P10275 whole entry): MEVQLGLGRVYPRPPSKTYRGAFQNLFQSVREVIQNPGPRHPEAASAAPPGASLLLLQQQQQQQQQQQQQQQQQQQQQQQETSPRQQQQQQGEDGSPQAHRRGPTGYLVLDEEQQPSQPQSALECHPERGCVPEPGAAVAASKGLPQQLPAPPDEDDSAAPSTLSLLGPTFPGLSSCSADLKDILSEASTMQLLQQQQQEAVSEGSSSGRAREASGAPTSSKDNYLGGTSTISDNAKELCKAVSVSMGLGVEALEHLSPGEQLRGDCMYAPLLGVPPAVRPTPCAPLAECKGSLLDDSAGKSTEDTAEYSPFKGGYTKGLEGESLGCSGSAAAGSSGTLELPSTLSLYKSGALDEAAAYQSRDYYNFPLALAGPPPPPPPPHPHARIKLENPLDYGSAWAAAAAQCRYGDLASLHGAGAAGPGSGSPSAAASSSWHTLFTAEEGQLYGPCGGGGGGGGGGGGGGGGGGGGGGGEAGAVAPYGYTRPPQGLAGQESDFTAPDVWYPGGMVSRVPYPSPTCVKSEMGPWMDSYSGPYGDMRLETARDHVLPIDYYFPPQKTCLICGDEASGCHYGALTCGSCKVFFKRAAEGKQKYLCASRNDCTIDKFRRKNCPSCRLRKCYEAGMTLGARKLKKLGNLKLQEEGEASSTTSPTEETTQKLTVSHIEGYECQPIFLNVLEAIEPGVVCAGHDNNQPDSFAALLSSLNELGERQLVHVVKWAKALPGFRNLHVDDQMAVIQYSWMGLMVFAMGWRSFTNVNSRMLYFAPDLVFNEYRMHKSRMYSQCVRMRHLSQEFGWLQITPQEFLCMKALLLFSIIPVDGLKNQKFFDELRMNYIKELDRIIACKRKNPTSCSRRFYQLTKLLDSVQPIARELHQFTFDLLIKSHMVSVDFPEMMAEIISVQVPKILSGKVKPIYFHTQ
Assay: Binding Assay: The test was carried out as in 1., with the following modifications: cytosol from androgen receptor-expressing insect cells (Hi5) was used, and the reference substance was 3H-testosterone.The results of the binding tests and the ratio of the competition factors CF(PR) and CR(MR) are shown in Table 1, which for comparison also shows receptor binding values of drospirenone as …

Compound	IC50
C[C@]12CC[C@H]3[C@@H](CC4(CC4)C4=CC(=O)CC[C@@H]43)[C@@H]1CC[C@@]21C=CC(=O)O1	37 nM
CC[C@]12CC[C@H]3[C@@H](CC4(CC4)C4=CC(=O)CC[C@@H]43)[C@@H]1CC[C@@]21C=CC(=O)O1	42 nM
